{"source": "patent US20210338645A1", "about": "“SOLID DISPERSION OF RIFAMYCIN-NITROIMIDAZOLE COUPLING MOLECULE AND APPLICATION THEREOF” (TenNor Therapeutics Limited, priority 2018, published 2021)", "type_in_all_cases": "physicochemical", "key": {"[1]": {"assay": "Dissolution of binary solid dispersion film in simulated gastric fluid of pH 1.2", "settings": "simulated gastric fluid pH 1.2, 25° C.", "experimental": "(§1) Preparation of binary solid dispersion (ASD for short): About 25 mg of rifaomycin-nitroimidazole coupling molecules and about 25 mg of carrier excipient are weighed, and placed into the same 40 mL glass bottle. The open 40 mL glass bottle is covered with perforated aluminum-foil paper to prevent cross contamination and placed into a 35° C. vacuum drying oven for rapid volatilization. After 40 hours of vacuum and full drying, the binary dispersion forms a purple film on the bottom of the bottle to obtain a binary solid dispersion film.\n(§2) The prepared binary solid dispersion film is subjected to dissolution experiments: In the 40 mL glass bottle containing solid dispersion films, 0.5 mL of simulated gastric fluid of pH 1.2 and […] of acetate buffer of pH 4.5 are respectively taken as dissolution media (25° C.) (the target concentration is 50 mg ml), to seal the glass bottle and complete the vortex processing for 5 seconds; 100 μL of liquid is taken as an initial sampling point (0 minute) and then the glass bottle is shaken by a rocking bed; 100 μL of solution is taken into centrifugal tubes respectively after 10 minutes, 30 minutes, and 60 minutes, to perform the centrifugation at a rotational speed of 14000 rpm for 5 minutes; and the supernatant is taken into a small liquid phase bottle and is diluted with the acetonitrile to a suitable multiple, and high-performance liquid chromatograph is taken into the glass bottle, to record a chromatogram map and calculate the concentration according to the peak area by an external standard method."}, "[2]": {"assay": "Dissolution of spray-dried solid dispersion powder in acetate buffer of pH 4.5 (target 4 mg/mL)", "settings": "acetate buffer pH 4.5, 37° C.", "experimental": "About 344 mg of prepared solid dispersions are taken and poured into a 40 mL glass bottle; 20 mL of acetate buffer of pH 4.5 (preheated to 37° C.) is used as the dissolution medium (the target concentration of the rifaomycin-nitroimidazole coupling molecule is 4 mg/mL); the glass bottle is sealed; and the above materials are whirled for 5 seconds and placed on a heated magnetic stirrer at 37° C. after a stir bar is inserted. The rotational speed is 300 rpm. After 10 min, 20 min, 40 min, 60 min, 90 min, 120 min and 180 min, 500 μL of the liquid is taken into the centrifuge tube and centrifuged at 14000 rpm for 3 min. The supernatant liquid is taken into the liquid phase bottle and diluted to 10 times with acetonitrile as the solution to be tested, the high performance liquid chromatography is injected and the chromatogram is recorded, and the concentration is calculated by the peak area using the external standard method."}, "[3]": {"assay": "Two-hour solubility of API in functional excipient solution"}, "[4]": {"assay": "Two-hour solubility of API in functional excipient solution", "settings": "for Two-hour Dissolution Rate: 37° C.; for increase of two-hour dissolution rate compared to API powder control: pH 4.5 system", "experimental": "In order to further increase the dissolution performance of the rifamycin-nitroimidazole coupling molecule, sodium dodecyl sulfate, meglumine, VE-TPGS or Tween 80 is respectively added in the simulated gastric fluid system of pH=1.2 or the acetate buffer system of pH=4.5, to prepare the dissolution medium containing 3 mg/mL of functional excipient. About 100 mg (or 20 mg) of rifamycin-nitroimidazole coupling molecules are weighed and put into a 1.5 ml high-performance liquid phase bottle, 1 ml of simulated gastric fluid of pH 1.2 (or acetate buffer of pH 4.5) containing functional excipient is added, and the rifamycin-nitroimidazole coupling molecules are put into a constant temperature mixing instrument at 37° C., the rotation speed is 700 rpm, and after 120 minutes, 500 μl of liquid is taken into a centrifuge tube and centrifuged at 14,000 rpm for 5 min. The supernatant liquid is centrifuged again in the same condition, and the supernatant liquid after twice centrifugation is taken into the liquid phase bottle, and diluted to a proper amount of times with acetonitrile as the solution to be tested, a high performance liquid chromatograph is injected to record a chromatogram, and the concentration is calculated by a peak area using an external standard method."}, "[5]": {"assay": "Approximate solubility of the coupling molecule in spray drying solvents", "settings": "organic solvent or mixture, thermodynamic from solid", "experimental": "In this embodiment, the solvent is firstly screened and determined: the solvent comprises one or a combination of more of methanol, ethanol, acetone, ethyl acetate, tetrahydrofuran and dichloromethane. About 10 mg of rifamycin-nitroimidazole coupling molecules are weighed into a 1.5 mL liquid phase bottle, and appropriate volumes of different solvents are added respectively to observe and judge whether the coupling molecule is completely dissolved and judge approximate solubility of the coupling molecule."}, "[6]": {"assay": "Dissolution of binary solid dispersion film in acetate buffer of pH 4.5", "settings": "for Drug Concentration: acetate buffer pH 4.5, 25° C.", "experimental": "as §1, §2"}, "[7]": {"settings": "simulated gastric fluid pH 1.2, no functional excipient"}, "[8]": {"settings": "acetate buffer pH 4.5, Meglumine"}, "[9]": {"settings": "acetate buffer pH 4.5, no functional excipient"}, "[10]": {"settings": "simulated gastric fluid pH 1.2, SLS"}, "[11]": {"settings": "simulated gastric fluid pH 1.2, Tween80"}, "[12]": {"settings": "simulated gastric fluid pH 1.2, VE-TPGS"}}, "note": "Read-outs that look alike come from different tables or passages of the source."}
{"smiles": "CO[C@H]1/C=C/O[C@@]2(C)Oc3c(C)c(O)c4c(c3C2=O)C2=NC3(CCN(CCn5c([N+](=O)[O-])cnc5C)CC3)NC2=C(NC(=O)/C(C)=C\\C=C\\[C@H](C)[C@H](O)[C@@H](C)[C@@H](O)[C@@H](C)[C@H](OC(C)=O)[C@@H]1C)C4=O", "note": "[API]", "values": [{"measurement": "pH", "setting": "[1]; dissolution medium", "result": 2.0}, {"measurement": "Phenomenon", "setting": "[1]", "result": "Clear"}, {"measurement": "Drug Concentration", "setting": "[1]; 0 min", "result": 10000, "unit": "µg/mL"}, {"measurement": "Drug Concentration", "setting": "[1]; 10 min", "result": 46400, "unit": "µg/mL"}, {"measurement": "Drug Concentration", "setting": "[1]; 30 min", "result": 54700, "unit": "µg/mL"}, {"measurement": "Drug Concentration", "setting": "[1]; 60 min", "result": 53500, "unit": "µg/mL"}, {"measurement": "Phenomenon", "setting": "[2]", "result": "Inhomogeneous"}, {"measurement": "Drug Concentration", "setting": "[2]; 10 Min", "result": 210, "unit": "µg/mL"}, {"measurement": "Drug Concentration", "setting": "[2]; 20 Min", "result": 170, "unit": "µg/mL"}, {"measurement": "Drug Concentration", "setting": "[2]; 40 Min", "result": 190, "unit": "µg/mL"}, {"measurement": "Drug Concentration", "setting": "[2]; 60 Min", "result": 180, "unit": "µg/mL"}, {"measurement": "Drug Concentration", "setting": "[2]; 90 Min", "result": 180, "unit": "µg/mL"}, {"measurement": "Drug Concentration", "setting": "[2]; 120 Min", "result": 180, "unit": "µg/mL"}, {"measurement": "Drug Concentration", "setting": "[2]; 180 Min", "result": 160, "unit": "µg/mL"}, {"measurement": "pH", "setting": "[2]; dissolution medium", "result": 4.47}, {"measurement": "Two-hour Dissolution Rate", "setting": "[3]; 100 mg API + 1 mL simulated gastric fluid pH 1.2, no functional excipient, 37° C.", "result": 9.8, "unit": "mg/mL"}, {"measurement": "Final pH", "setting": "[3]; [7]", "result": 2.5}, {"measurement": "Two-hour Dissolution Rate", "setting": "[4]; 20 mg API + 1 mL acetate buffer pH 4.5, Meglumine 3 mg/mL", "result": 0.10, "unit": "mg/mL"}, {"measurement": "Two-hour Dissolution Rate", "setting": "[4]; 20 mg API + 1 mL acetate buffer pH 4.5, SLS 3 mg/mL", "result": 0.06, "unit": "mg/mL"}, {"measurement": "Two-hour Dissolution Rate", "setting": "[4]; 20 mg API + 1 mL acetate buffer pH 4.5, Tween80 3 mg/mL", "result": 0.61, "unit": "mg/mL"}, {"measurement": "Two-hour Dissolution Rate", "setting": "[4]; 20 mg API + 1 mL acetate buffer pH 4.5, VE-TPGS 3 mg/mL", "result": 0.84, "unit": "mg/mL"}, {"measurement": "Two-hour Dissolution Rate", "setting": "[4]; 20 mg API + 1 mL acetate buffer pH 4.5, no functional excipient", "result": 0.15, "unit": "mg/mL"}, {"measurement": "Two-hour Dissolution Rate", "setting": "[4]; 100 mg API + 1 mL simulated gastric fluid pH 1.2, SLS 3 mg/mL", "result": 6.7, "unit": "mg/mL"}, {"measurement": "Two-hour Dissolution Rate", "setting": "[4]; 100 mg API + 1 mL simulated gastric fluid pH 1.2, Tween80 3 mg/mL", "result": 11.7, "unit": "mg/mL"}, {"measurement": "Two-hour Dissolution Rate", "setting": "[4]; 100 mg API + 1 mL simulated gastric fluid pH 1.2, VE-TPGS 3 mg/mL", "result": 11.5, "unit": "mg/mL"}, {"measurement": "Final pH", "setting": "[4]; [8]", "result": 4.91}, {"measurement": "Physical Appearance", "setting": "[4]; [8]", "result": "Suspension"}, {"measurement": "Final pH", "setting": "[4]; acetate buffer pH 4.5, SLS", "result": 4.65}, {"measurement": "Physical Appearance", "setting": "[4]; acetate buffer pH 4.5, SLS", "result": "Suspension"}, {"measurement": "Final pH", "setting": "[4]; acetate buffer pH 4.5, Tween80", "result": 4.46}, {"measurement": "Physical Appearance", "setting": "[4]; acetate buffer pH 4.5, Tween80", "result": "Suspension"}, {"measurement": "Final pH", "setting": "[4]; acetate buffer pH 4.5, VE-TPGS", "result": 4.45}, {"measurement": "Physical Appearance", "setting": "[4]; acetate buffer pH 4.5, VE-TPGS", "result": "Suspension"}, {"measurement": "Final pH", "setting": "[4]; [9]", "result": 4.45}, {"measurement": "Physical Appearance", "setting": "[4]; [9]", "result": "Suspension"}, {"measurement": "increase of two-hour dissolution rate compared to API powder control", "setting": "[4]; Tween-80", "result": 4, "unit": "times"}, {"measurement": "increase of two-hour dissolution rate compared to API powder control", "setting": "[4]; VE-TPGS", "result": 6, "unit": "times"}, {"measurement": "Final pH", "setting": "[4]; [10]", "result": 2.72}, {"measurement": "Physical Appearance", "setting": "[4]; [10]", "result": "Suspension"}, {"measurement": "Final pH", "setting": "[4]; [11]", "result": 2.60}, {"measurement": "Physical Appearance", "setting": "[4]; [11]", "result": "Suspension"}, {"measurement": "Final pH", "setting": "[4]; [12]", "result": 2.60}, {"measurement": "Physical Appearance", "setting": "[4]; [12]", "result": "Suspension"}, {"measurement": "Physical Appearance", "setting": "[4]; [7]", "result": "Suspension"}, {"measurement": "solubility", "setting": "[5]; acetone, read-out: Approximate Solubility", "result": "> 300", "unit": "mg/mL"}, {"measurement": "solubility", "setting": "[5]; dichloromethane, read-out: Approximate Solubility", "result": "> 300", "unit": "mg/mL"}, {"measurement": "solubility", "setting": "[5]; ethanol, read-out: Approximate Solubility", "result": "167 to 200", "unit": "mg/mL"}, {"measurement": "solubility", "setting": "[5]; ethyl acetate, read-out: Approximate Solubility", "result": "167 to 200", "unit": "mg/mL"}, {"measurement": "solubility", "setting": "[5]; methanol, read-out: Approximate Solubility", "result": "> 300", "unit": "mg/mL"}, {"measurement": "solubility", "setting": "[5]; various common spray drying solvents, read-out: Solubility", "result": "> 100", "unit": "mg/mL"}, {"measurement": "solubility", "setting": "[5]; tetrahydrofuran, read-out: Approximate Solubility", "result": "> 200", "unit": "mg/mL"}, {"measurement": "Phenomenon", "setting": "[6]; acetate buffer pH 4.5", "result": "Clear solution, incomplete dissolved film"}, {"measurement": "Drug Concentration", "setting": "[6]; 0 min", "result": 10, "unit": "µg/mL"}, {"measurement": "Drug Concentration", "setting": "[6]; 10 min", "result": 290, "unit": "µg/mL"}, {"measurement": "Drug Concentration", "setting": "[6]; 30 min", "result": 340, "unit": "µg/mL"}, {"measurement": "Drug Concentration", "setting": "[6]; 60 min", "result": 370, "unit": "µg/mL"}, {"measurement": "pH", "setting": "[6]; dissolution medium, acetate buffer pH 4.5", "result": 4.5}]}
